Assay results: patent publication US10377753B2, “Substituted 4-azaindoles and their use as GluN2B receptor modulators” (Janssen Pharmaceutica NV, priority 2015, dated 2019)

Molecular target: cloned human NR1/NR2B ion channels (Homo sapiens (Human), UniProt Q05586+Q13224)
Assay: HNR2BC: effects of test articles on cloned human NR1/NR2B ion channels expressed in mammalian cells (FLIPR calcium flux)
Format: cell-based
Details: cloned human NR1/NR2B ion channels, Table 5
How it was run: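 Compounds were added to dye-loaded cells for 5 min with fluorescence monitored for agonism, followed by co-agonists (glutamate ~EC80, glycine 10 μM saturating) for 5 min. Cells stably expressed inducible human NR1/NR2B, and the buffer was pH 7.4. The FLIPR Ca2+ flux signal was normalized against control wells.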

Sequence of cloned human NR1/NR2B ion channels (Q13224 27-1484, other chains not shown): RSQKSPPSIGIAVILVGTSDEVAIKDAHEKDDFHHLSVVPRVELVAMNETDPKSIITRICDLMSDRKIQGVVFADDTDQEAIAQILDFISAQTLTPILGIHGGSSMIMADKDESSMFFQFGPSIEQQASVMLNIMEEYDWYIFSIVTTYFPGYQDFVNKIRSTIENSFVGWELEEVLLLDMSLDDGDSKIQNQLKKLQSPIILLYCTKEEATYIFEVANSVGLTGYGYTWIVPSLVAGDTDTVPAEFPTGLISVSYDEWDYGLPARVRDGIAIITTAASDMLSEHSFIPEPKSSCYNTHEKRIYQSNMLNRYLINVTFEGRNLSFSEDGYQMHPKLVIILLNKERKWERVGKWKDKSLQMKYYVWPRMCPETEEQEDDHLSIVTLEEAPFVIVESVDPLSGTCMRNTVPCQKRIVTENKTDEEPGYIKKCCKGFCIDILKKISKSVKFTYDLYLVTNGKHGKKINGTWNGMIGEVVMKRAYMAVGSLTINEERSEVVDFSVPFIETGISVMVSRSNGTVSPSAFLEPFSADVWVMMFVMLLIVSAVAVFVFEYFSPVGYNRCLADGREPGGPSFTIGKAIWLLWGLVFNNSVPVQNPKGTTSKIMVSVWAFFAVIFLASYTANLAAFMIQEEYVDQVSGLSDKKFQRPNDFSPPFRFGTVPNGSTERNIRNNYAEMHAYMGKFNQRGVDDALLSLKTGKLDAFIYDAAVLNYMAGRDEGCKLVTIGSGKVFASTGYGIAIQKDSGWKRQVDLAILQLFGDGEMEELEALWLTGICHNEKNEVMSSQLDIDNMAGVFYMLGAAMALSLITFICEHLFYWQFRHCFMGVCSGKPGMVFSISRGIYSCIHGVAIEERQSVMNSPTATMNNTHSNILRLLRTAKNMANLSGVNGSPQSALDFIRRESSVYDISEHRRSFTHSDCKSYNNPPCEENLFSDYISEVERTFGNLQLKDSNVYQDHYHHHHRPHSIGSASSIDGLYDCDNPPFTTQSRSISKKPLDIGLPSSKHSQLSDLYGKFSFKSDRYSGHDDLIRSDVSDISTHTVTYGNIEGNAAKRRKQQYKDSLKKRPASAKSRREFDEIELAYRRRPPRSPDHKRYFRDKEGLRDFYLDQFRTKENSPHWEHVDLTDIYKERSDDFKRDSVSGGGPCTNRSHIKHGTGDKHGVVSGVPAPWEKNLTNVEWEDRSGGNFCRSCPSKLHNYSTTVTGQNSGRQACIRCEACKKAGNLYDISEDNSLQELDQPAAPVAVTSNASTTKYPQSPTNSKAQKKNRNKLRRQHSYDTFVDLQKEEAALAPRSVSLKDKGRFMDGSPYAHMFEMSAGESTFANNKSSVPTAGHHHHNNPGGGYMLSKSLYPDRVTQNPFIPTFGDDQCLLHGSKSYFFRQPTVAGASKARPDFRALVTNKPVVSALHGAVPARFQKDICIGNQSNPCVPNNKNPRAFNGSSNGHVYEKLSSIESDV

IC50	pIC50	Structure (SMILES)
20 nM		O=C(Cn1ccc2ncc(-c3cccc(Cl)c3F)cc21)N1CC(F)C1 [Example 466, 2-[6-(3-Chloro-2-fluoro-phenyl)pyrrolo[3,2-b]pyridin-1-yl]-1-(3-fluoroazetidin-1-yl)ethanone]
63.1 nM		O=C(Cn1ccc2ncc(-c3ccc(F)c(Cl)c3)cc21)N1CC(F)C1 [Example 467, 2-[6-(3-Chloro-4-fluoro-phenyl)pyrrolo[3,2-b]pyridin-1-yl]-1-(3-fluoroazetidin-1-yl)ethanone]
15.8 nM		CCN(C)C(=O)Cn1ccc2ncc(-c3ccc(F)c(C)c3F)cc21 [Example 469, 2-[6-(2,4-Difluoro-3-methyl-phenyl)pyrrolo[3,2-b]pyridin-1-yl]-N-ethyl-N-methyl-acetamide]
200 nM		CCN(C)C(=O)Cn1ccc2ncc(-c3cccc(C(F)(F)F)c3)cc21 [Example 470, N-Ethyl-N-methyl-2-[6-[3-(trifluoromethyl)phenyl]pyrrolo[3,2-b]pyridin-1-yl]acetamide]
100 nM		O=C(Cn1cc(F)c2ncc(-c3ccccc3F)cc21)N1CCC1 [Example 471, 1-(Azetidin-1-yl)-2-[3-fluoro-6-(2-fluorophenyl)pyrrolo[3,2-b]pyridin-1-yl]ethanone]
200 nM		Cc1cccc(-c2cnc3c(F)cn(CC(=O)N4CCC4)c3c2)c1F [Example 472, 1-(Azetidin-1-yl)-2-[3-fluoro-6-(2-fluoro-3-methyl-phenyl)pyrrolo[3,2-b]pyridin-1-yl]ethanone]
31.6 nM		Cc1cccc(-c2cnc3c(F)cn(CC(=O)N4CCC4)c3c2)c1 [Example 473, 1-(Azetidin-1-yl)-2-[3-fluoro-6-(m-tolyl)pyrrolo[3,2-b]pyridin-1-yl]ethanone]
31.6 nM		O=C(Cn1cc(F)c2ncc(-c3cc(F)cc(F)c3)cc21)N1CCC1 [Example 474, 1-(Azetidin-1-yl)-2-[6-(3,5-difluorophenyl)-3-fluoro-pyrrolo[3,2-b]pyridin-1-yl]ethanone]
25.1 nM		O=C(Cn1cc(F)c2ncc(-c3cccc(C(F)(F)F)c3)cc21)N1CCC1 [Example 475, 1-(Azetidin-1-yl)-2-[3-fluoro-6-[3-(trifluoromethyl)phenyl]pyrrolo[3,2-b]pyridin-1-yl]ethanone]
50.1 nM		O=C(Cn1cc(F)c2ncc(-c3cccc(C(F)(F)F)c3F)cc21)N1CCC1 [Example 476, 1-(Azetidin-1-yl)-2-[3-fluoro-6-[2-fluoro-3-(trifluoromethyl)phenyl]pyrrolo[3,2-b]pyridin-1-yl]ethanone]
50.1 nM		O=C(Cn1cc(F)c2ncc(-c3ccc(F)c(F)c3F)cc21)N1CCC1 [Example 477, 1-(Azetidin-1-yl)-2-[3-fluoro-6-(2,3,4-trifluorophenyl)pyrrolo[3,2-b]pyridin-1-yl]ethanone]
39.8 nM		O=C(Cn1cc(F)c2ncc(-c3cccc(Cl)c3)cc21)N1CCC1 [Example 478, 1-(Azetidin-1-yl)-2-[6-(3-chlorophenyl)-3-fluoro-pyrrolo[3,2-b]pyridin-1-yl]ethanone]
25.1 nM		O=C(Cn1cc(F)c2ncc(-c3cccc(Cl)c3F)cc21)N1CCC1 [Example 479, 1-(Azetidin-1-yl)-2-[6-(3-chloro-2-fluoro-phenyl)-3-fluoro-pyrrolo[3,2-b]pyridin-1-yl]ethanone]
39.8 nM		Cc1c(F)ccc(-c2cnc3c(F)cn(CC(=O)N4CCC4)c3c2)c1F [Example 480, 1-(Azetidin-1-yl)-2-[6-(2,4-difluoro-3-methyl-phenyl)-3-fluoro-pyrrolo[3,2-b]pyridin-1-yl]ethanone]
25.1 nM		O=C(Cn1cc(F)c2ncc(-c3ccc(F)c(Cl)c3)cc21)N1CCC1 [Example 481, 1-(Azetidin-1-yl)-2-[6-(3-chloro-4-fluoro-phenyl)-3-fluoro-pyrrolo[3,2-b]pyridin-1-yl]ethanone]
15.8 nM		O=C(Cn1cc(F)c2ncc(-c3ccccc3)cc21)N1CC(F)C1 [Example 482, 1-(3-Fluoroazetidin-1-yl)-2-(3-fluoro-6-phenyl-pyrrolo[3,2-b]pyridin-1-yl)ethanone]
63.1 nM		Cc1cccc(-c2cnc3c(F)cn(CC(=O)N4CC(F)C4)c3c2)c1F [Example 483, 1-(3-Fluoroazetidin-1-yl)-2-[3-fluoro-6-(2-fluoro-3-methyl-phenyl)pyrrolo[3,2-b]pyridin-1-yl]ethanone]
12.6 nM		O=C(Cn1cc(F)c2ncc(-c3cccc(C(F)(F)F)c3)cc21)N1CC(F)C1 [Example 484, 1-(3-Fluoroazetidin-1-yl)-2-[3-fluoro-6-[3-(trifluoromethyl)phenyl]pyrrolo[3,2-b]pyridin-1-yl]ethanone]
39.8 nM		O=C(Cn1cc(F)c2ncc(-c3cccc(C(F)(F)F)c3F)cc21)N1CC(F)C1 [Example 485, 1-(3-Fluoroazetidin-1-yl)-2-[3-fluoro-6-[2-fluoro-3-(trifluoromethyl)phenyl]pyrrolo[3,2-b]pyridin-1-yl]ethanone]
25.1 nM		O=C(Cn1cc(F)c2ncc(-c3ccc(F)c(F)c3F)cc21)N1CC(F)C1 [Example 486, 1-(3-Fluoroazetidin-1-yl)-2-[3-fluoro-6-(2,3,4-trifluorophenyl)pyrrolo[3,2-b]pyridin-1-yl]ethanone]

IC50	pIC50	Structure (SMILES)
50.1 nM		O=C(Cn1cc(F)c2ncc(-c3cc(F)cc(F)c3)cc21)N1CC(F)C1 [Example 487, 2-[6-(3,5-Difluorophenyl)-3-fluoro-pyrrolo[3,2-b]pyridin-1-yl]-1-(3-fluoroazetidin-1-yl)ethanone]
15.8 nM		Cc1c(F)ccc(-c2cnc3c(F)cn(CC(=O)N4CC(F)C4)c3c2)c1F [Example 488, 2-[6-(2,4-Difluoro-3-methyl-phenyl)-3-fluoro-pyrrolo[3,2-b]pyridin-1-yl]-1-(3-fluoroazetidin-1-yl)ethanone]
	8.0	O=C(Cn1cc(F)c2ncc(-c3cccc(Cl)c3)cc21)N1CC(F)C1 [Example 489, 2-[6-(3-Chlorophenyl)-3-fluoro-pyrrolo[3,2-b]pyridin-1-yl]-1-(3-fluoroazetidin-1-yl)ethanone]
20 nM		O=C(Cn1cc(F)c2ncc(-c3cccc(Cl)c3F)cc21)N1CC(F)C1 [Example 490, 2-[6-(3-Chloro-2-fluoro-phenyl)-3-fluoro-pyrrolo[3,2-b]pyridin-1-yl]-1-(3-fluoroazetidin-1-yl)ethanone]
15.8 nM		CCc1cccc(-c2cnc3c(F)cn(CC(=O)N4CC(F)C4)c3c2)c1 [Example 491, 2-[6-(3-Ethylphenyl)-3-fluoro-pyrrolo[3,2-b]pyridin-1-yl]-1-(3-fluoroazetidin-1-yl)ethanone]
25.1 nM		O=C(Cn1cc(F)c2ncc(-c3cccc(F)c3)cc21)N1CC(F)C1 [Example 492, 1-(3-Fluoroazetidin-1-yl)-2-[3-fluoro-6-(3-fluorophenyl)pyrrolo[3,2-b]pyridin-1-yl]ethanone]
25.1 nM		CN(C)C(=O)Cn1cc(F)c2ncc(-c3ccccc3F)cc21 [Example 493, 2-[3-Fluoro-6-(2-fluorophenyl)pyrrolo[3,2-b]pyridin-1-yl]-N,N-dimethyl-acetamide]
316 nM		Cc1cccc(-c2cnc3c(F)cn(CC(=O)N(C)C)c3c2)c1F [Example 494, 2-[3-Fluoro-6-(2-fluoro-3-methyl-phenyl)pyrrolo[3,2-b]pyridin-1-yl]-N,N-dimethyl-acetamide]
12.6 nM		CN(C)C(=O)Cn1cc(F)c2ncc(-c3ccccc3)cc21 [Example 495, 2-(3-Fluoro-6-phenyl-pyrrolo[3,2-b]pyridin-1-yl)-N,N-dimethyl-acetamide]
79.4 nM		Cc1cccc(-c2cnc3c(F)cn(CC(=O)N(C)C)c3c2)c1 [Example 496, 2-[3-Fluoro-6-(m-tolyl)pyrrolo[3,2-b]pyridin-1-yl]-N,N-dimethyl-acetamide]
31.6 nM		O=C(Cn1cc(F)c2ncc(-c3ccccc3)cc21)N1CCC1 [Example 497, 1-(Azetidin-1-yl)-2-(3-fluoro-6-phenyl-pyrrolo[3,2-b]pyridin-1-yl)ethanone]
79.4 nM		CCc1cccc(-c2cnc3c(F)cn(CC(=O)N4CCC4)c3c2)c1 [Example 498, 1-(Azetidin-1-yl)-2-[6-(3-ethylphenyl)-3-fluoro-pyrrolo[3,2-b]pyridin-1-yl]ethanone]
25.1 nM		CN(C)C(=O)Cn1cc(F)c2ncc(-c3cccc(C(F)(F)F)c3)cc21 [Example 499, 2-[3-Fluoro-6-[3-(trifluoromethyl)phenyl]pyrrolo[3,2-b]pyridin-1-yl]-N,N-dimethyl-acetamide]
31.6 nM		CN(C)C(=O)Cn1cc(F)c2ncc(-c3cccc(C(F)(F)F)c3F)cc21 [Example 500, 2-[3-Fluoro-6-[2-fluoro-3-(trifluoromethyl)phenyl]pyrrolo[3,2-b]pyridin-1-yl]-N,N-dimethyl-acetamide]
39.8 nM		CN(C)C(=O)Cn1cc(F)c2ncc(-c3ccc(F)c(F)c3F)cc21 [Example 501, 2-[3-Fluoro-6-(2,3,4-trifluorophenyl)pyrrolo[3,2-b]pyridin-1-yl]-N,N-dimethyl-acetamide]
39.8 nM		Cc1c(F)ccc(-c2cnc3c(F)cn(CC(=O)N(C)C)c3c2)c1F [Example 502, 2-[6-(2,4-Difluoro-3-methyl-phenyl)-3-fluoro-pyrrolo[3,2-b]pyridin-1-yl]-N,N-dimethyl-acetamide]
15.8 nM		CN(C)C(=O)Cn1cc(F)c2ncc(-c3cccc(Cl)c3)cc21 [Example 503, 2-[6-(3-Chlorophenyl)-3-fluoro-pyrrolo[3,2-b]pyridin-1-yl]-N,N-dimethyl-acetamide]
12.6 nM		CN(C)C(=O)Cn1cc(F)c2ncc(-c3ccc(F)c(Cl)c3)cc21 [Example 504, 2-[6-(3-Chloro-4-fluoro-phenyl)-3-fluoro-pyrrolo[3,2-b]pyridin-1-yl]-N,N-dimethyl-acetamide]
20 nM		CCc1cccc(-c2cnc3c(F)cn(CC(=O)N(C)C)c3c2)c1 [Example 505, 2-[6-(3-Ethylphenyl)-3-fluoro-pyrrolo[3,2-b]pyridin-1-yl]-N,N-dimethyl-acetamide]
15.8 nM		O=C(Cn1cc(F)c2ncc(-c3cccc(F)c3)cc21)N1CCC1 [Example 506, 1-(Azetidin-1-yl)-2-[3-fluoro-6-(3-fluorophenyl)pyrrolo[3,2-b]pyridin-1-yl]ethanone]
